The values below are quoted from earlier work in US10273546B2, “Method and composition for diagnosis or treatment of aggressive prostate cancer” (The Trustees of Columbia University in the City of New York, priority 2014, dated 2019).

One data set concerns Apo-B. To be noted: animal models.
The conditions of data set [1]: human, in vivo.

As for Mipomersen, the “repression of target apo-B expression” value with Apo-B is “robust and prolonged repression”. The toxic effects entry in data set [1] was “relatively mild”.
